# What was measured:
# p38 in 22Rv1 cells = test: Western blotting, MAPK activation; format: cell-based, human; settings: 22Rv1, 1 µM or 10 µM, 2 h
# Description: (§1) We examined several time points, specifically, 15 min, 2 h, and 48 h (Figure 6).
# (§2) Figure 6 Validation of kinome analysis data. 22Rv1 cells were treated with 1 µM or 10 µM of NB for the indicated time. The protein expression was analyzed by Western blotting using total protein load equal to 30 µg/slot. α-Tubulin was used as a loading control.
# (§3) The Western blot assay was executed as previously described: 1 × 10^6 cells were seeded in Petri dishes (ø 6 cm, 5 mL/dish) and incubated overnight. On the next day, the cells were treated with the compounds in fresh culture media (5 mL/dish) for the indicated time. Next, cells were harvested with a cell scraper and lysed in lysis buffer including protease and phosphatase inhibitors cocktail (Roche, Mannheim, Germany). Cell debris were removed from the protein lysates via centrifugation. Afterwards, the cell-free protein mixtures were separated in gradient ready-made Mini-PROTEAN® TGX Stain-Free^TM gels (Bio-Rad, Hercules, CA, USA) using SDS-PAGE (sodium dodecylsulfate polyacrylamide gel electrophoresis). Then, the proteins were blotted onto ø 0.2 µm pore PVDF membrane. The membrane was blocked and consequently treated with primary and secondary antibodies for protein detection. The signals were detected using the ECL chemiluminescence system (Thermo Scientific, Rockford, IL, USA).
# JNK1/2 in 22Rv1 cells = test: Western blotting, MAPK activation; format: cell-based, human; settings: 22Rv1, 1 µM or 10 µM
# Description: as §1, §2, §3
# ERK1/2 in 22Rv1 cells = test: Western blotting, MAPK activation; format: cell-based, human; settings: 22Rv1, 1 µM or 10 µM
# Description: as §1, §2, §3
# 22Rv1 cells [1] = test: Cell cycle progression and DNA fragmentation analysis (PI, flow cytometry); format: cell-based, human; settings: 22Rv1, 48 h
# Description: (§4) Figure 4 Investigation of the proapoptotic activity of NB. Flow cytometry analysis of 22Rv1 cells after 48 h of treatment. (A) Cell cycle and DNA fragmentation analysis. Treated cells were stained with PI and analyzed using a flow cytometry technique. Sub-G1 population was assumed to be apoptotic cells containing fragmentated DNA. (B) Analysis of phosphatidylserine externalization. Treated cells were double-stained with annexin-V-FITC and PI and analyzed using the flow cytometry technique. Cells of the low left quadrant (annexin-V-FITC^−/PI^−) were considered as alive cells. The Cell Quest Pro v.5.2.1 software (BD Bioscience, San Jose, CA, USA) was used to analyze and quantify the FACS data. Cells treated for 48 h with 10 µM of anisomycin were used as a positive control. Number of replicates n = 3. Statistical significance: * p < 0.05 (ANOVA). […]
# DNA fragmentation and cell cycle progression of treated and untreated cells (negative control) were analyzed by flow cytometry as previously described. […]
# [2] = target: p-glycoprotein (p-gp, MDR1) in PC3-DR cells (Homo sapiens, UniProt P08183); test: Calcein-AM exclusion assay, p-glycoprotein activity
# p-glycoprotein (p-gp, MDR1) in PC3-DR cells, sequence (P08183 whole entry): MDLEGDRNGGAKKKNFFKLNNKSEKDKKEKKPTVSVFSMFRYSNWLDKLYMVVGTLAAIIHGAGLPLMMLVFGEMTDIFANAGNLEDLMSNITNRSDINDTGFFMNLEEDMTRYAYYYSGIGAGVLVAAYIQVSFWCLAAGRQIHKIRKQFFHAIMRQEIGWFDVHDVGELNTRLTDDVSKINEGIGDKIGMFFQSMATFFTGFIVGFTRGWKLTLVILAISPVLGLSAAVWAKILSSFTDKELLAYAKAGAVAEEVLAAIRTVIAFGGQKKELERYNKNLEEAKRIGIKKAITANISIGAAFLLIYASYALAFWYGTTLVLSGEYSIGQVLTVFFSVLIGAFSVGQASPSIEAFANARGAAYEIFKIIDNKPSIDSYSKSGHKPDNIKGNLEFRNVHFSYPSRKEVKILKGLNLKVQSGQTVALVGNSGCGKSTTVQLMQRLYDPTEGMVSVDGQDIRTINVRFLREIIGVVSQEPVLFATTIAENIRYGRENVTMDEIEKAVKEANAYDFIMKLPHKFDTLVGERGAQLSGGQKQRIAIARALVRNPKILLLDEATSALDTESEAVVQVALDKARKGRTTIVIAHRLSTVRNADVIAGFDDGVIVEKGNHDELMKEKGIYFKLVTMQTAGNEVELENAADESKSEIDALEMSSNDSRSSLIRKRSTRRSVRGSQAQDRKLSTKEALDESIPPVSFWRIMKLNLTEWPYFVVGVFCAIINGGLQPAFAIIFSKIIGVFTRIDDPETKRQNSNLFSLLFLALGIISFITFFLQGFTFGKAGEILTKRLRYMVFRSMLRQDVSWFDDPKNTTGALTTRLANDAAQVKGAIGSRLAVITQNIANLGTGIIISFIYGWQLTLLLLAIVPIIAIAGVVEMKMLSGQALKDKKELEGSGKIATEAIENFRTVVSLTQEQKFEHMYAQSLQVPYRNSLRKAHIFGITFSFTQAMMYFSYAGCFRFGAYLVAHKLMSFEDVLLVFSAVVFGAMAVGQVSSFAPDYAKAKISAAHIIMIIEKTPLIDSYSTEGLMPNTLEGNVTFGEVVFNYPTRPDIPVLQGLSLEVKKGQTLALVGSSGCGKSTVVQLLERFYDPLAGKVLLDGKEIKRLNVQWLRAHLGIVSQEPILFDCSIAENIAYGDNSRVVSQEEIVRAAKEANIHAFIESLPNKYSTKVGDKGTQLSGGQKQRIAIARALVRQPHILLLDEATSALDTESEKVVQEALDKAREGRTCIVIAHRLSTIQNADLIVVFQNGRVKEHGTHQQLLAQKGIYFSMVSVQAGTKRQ
# Description: To further understand the interactions of NB and p-gp, and the effect of NB on p-gp activity, we performed a calcein-AM-exclusion assay. Consequently, p-gp overexpressing PC3-DR cells were chosen as a test model. This assay utilizes calcein-AM (calcein acetoxymethyl ester), a nonfluorescent dye that enters cells through passive diffusion and exits cells through p-gp. Metabolic active cells contain cytosolic esterases that hydrolyze calcein-AM into its green-fluorescent form (calcein). The green fluorescence can be further measured. However, in p-gp overexpressing cells, calcein-AM is excreted out of the cell before it is metabolized. […] Application of p-gp inhibitors, such as tariquidar (TQD), leads to the accumulation of calcein-AM/calcein inside the cells and, therefore, to increased fluorescence. […] In our experiments, PC3-DR cells were exposed to NB for 30 min followed by incubation with calcein-AM.
# (A) Effect of NB on calcein accumulation (measures as green fluorescence) in PC3-DR cells. The effect was measures following 30 min incubation with the drug. P-gp inhibitor tariquidar (TQD, 50 nM) was used as a positive control. Number of replicates n = 3.
# The experiment was performed as previously described [42]. […] The green fluorescence was measured with Infinite F200PRO reader (TECAN, Männedorf, Switzerland). […]
# 22Rv1 cells [3] = test: Annexin-V-FITC/PI double staining, flow cytometry; format: cell-based, human
# Description: as §4
# Externalization of phosphatidylserine is a distinct marker of apoptotic cell death that can be detected by flow cytometry using annexin-V-FITC and propidium iodide (PI) double staining. […] Cells were harvested utilizing trypsin, stained with annexin-V-FITC and propidium iodide, and analyzed using FACS Calibur (BD Bioscience, San Jose, CA, USA).
compound,measurement,setting,value
"COc1ccc(C2SSC34CC5(O)C(Cl)C=CC(O)C5ON3C(=O)C2N(C)C4=O)c(O)c1OC (stereo not shown) [NB, N-methylpretrichodermamide B]",activation of p38,p38 in 22Rv1 cells,activation of p38
same,JNK1/2 phosphorylation,JNK1/2 in 22Rv1 cells; 2 h,pronounced JNK1/2 phosphorylation
same,JNK1/2 phosphorylation,JNK1/2 in 22Rv1 cells; 48 h,no phosphorylation (or even slight downregulation)
same,activation of ERK1/2,ERK1/2 in 22Rv1 cells,no activation
same,DNA fragmentation (sub-G1 population),22Rv1 cells [1],caused DNA fragmentation
same,cell cycle arrest,22Rv1 cells [1],G1-phase arrest
same,"calcein accumulation (green fluorescence), p-gp inhibition","[2]; 30 min exposure, nanomolar concentrations, dose-dependent",significantly increased the green fluorescence
same,concentration at which an inhibitory effect on p-gp activity was already detected,"[2]; calcein-AM, noncytotoxic concentration",312.5 nM
same,phosphatidylserine externalization,"22Rv1 cells [3]; 22Rv1, 48 h",caused DNA fragmentation and phosphatidylserine externalization
same,effect of pretreatment with pan-caspase inhibitor zVAD on drug-induced cell death,"22Rv1 cells [3]; 22Rv1, zVAD 100 µM 1 h pretreatment, 48 h",could not significantly inhibit
